Laboratory results published in ChEMBL document CHEMBL1201862, “PubChem BioAssay data set” (2004).
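Dose response: 5 concentrations. Exposure: 48 h. Format: 96-well plates. Endpoint: linear interpolation; highest concentration if not reached. GI50: concentration for 50% inhibition of growth.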 Active and inactive are the calls of the source. Cut-off read from the data, not from the text of the source: active = GI50 up to about 1.1 µM and inactive = higher.

Experiments:
Assay in all cases: growth of human tumour cells (NCI), 48 h
786-0 = system: 786-0
A498 = system: A498
A549 = system: A549
ACHN = system: ACHN
BT-549 = system: BT-549
CAKI-1 = system: CAKI-1
CCRF-CEM = system: CCRF-CEM
COLO 205 = system: COLO 205
DU-145 = system: DU-145
EKVX = system: EKVX
HCC 2998 = system: HCC 2998
HCT-116 = system: HCT-116
HCT-15 = system: HCT-15
HOP-62 = system: HOP-62
HOP-92 = system: HOP-92
HT-29 = system: HT-29
Hs-578T = system: Hs-578T
IGROV-1 = system: IGROV-1
K562 = system: K562
KM12 = system: KM12
LOX IMVI = system: LOX IMVI
M14 = system: M14
MCF7 = system: MCF7
MDA-MB-231 = system: MDA-MB-231
MDA-MB-435 = system: MDA-MB-435
MDA-N = system: MDA-N
MOLT-4 = system: MOLT-4
Malme-3M = system: Malme-3M
NCI-H226 = system: NCI-H226
NCI-H23 = system: NCI-H23
NCI-H460 = system: NCI-H460
NCI-H522 = system: NCI-H522
NCI/ADR-RES = system: NCI/ADR-RES
OVCAR-3 = system: OVCAR-3
OVCAR-4 = system: OVCAR-4
OVCAR-5 = system: OVCAR-5
OVCAR-8 = system: OVCAR-8
PC-3 = system: PC-3
RPMI-8226 = system: RPMI-8226
RXF 393 = system: RXF 393
SF-268 = system: SF-268
SF-295 = system: SF-295
SF-539 = system: SF-539
SK-MEL-28 = system: SK-MEL-28
SK-MEL-2 = system: SK-MEL-2
SK-MEL-5 = system: SK-MEL-5
SK-OV-3 = system: SK-OV-3
SN12C = system: SN12C
SNB-19 = system: SNB-19
SNB-75 = system: SNB-75
SR = system: SR
SW-620 = system: SW-620
T47D = system: T47D
TK-10 = system: TK-10
U-251 = system: U-251
UACC-257 = system: UACC-257
UACC-62 = system: UACC-62
UO-31 = system: UO-31
HL-60 = system: HL-60

O=C(O)CC1(CC(=O)O)Nc2ccccc2SC1=O
GI50 (786-0): > 100 µM (inactive) | GI50 (A498): > 100 µM (inactive) | GI50 (A549): > 100 µM (inactive) | GI50 (ACHN): > 100 µM (inactive) | GI50 (BT-549): > 100 µM (inactive) | GI50 (CAKI-1): > 100 µM (inactive) | GI50 (CCRF-CEM): > 100 µM (inactive) | GI50 (COLO 205): > 100 µM (inactive) | GI50 (DU-145): > 100 µM (inactive) | GI50 (EKVX): > 100 µM (inactive) | GI50 (HCC 2998): > 100 µM (inactive) | GI50 (HCT-116): > 100 µM (inactive) | GI50 (HCT-15): > 100 µM | GI50 (HOP-62): > 100 µM (inactive) | GI50 (HOP-92): > 100 µM (inactive) | GI50 (HT-29): > 100 µM (inactive) | GI50 (Hs-578T): > 100 µM (inactive) | GI50 (IGROV-1): > 100 µM (inactive) | GI50 (K562): > 100 µM (inactive) | GI50 (KM12): > 100 µM (inactive) | GI50 (LOX IMVI): > 100 µM (inactive) | GI50 (M14): > 100 µM (inactive) | GI50 (MCF7): > 100 µM (inactive) | GI50 (MDA-MB-231): > 100 µM (inactive) | GI50 (MDA-MB-435): > 100 µM (inactive) | GI50 (MDA-N): > 100 µM (inactive) | GI50 (MOLT-4): > 100 µM (inactive) | GI50 (Malme-3M): > 100 µM (inactive) | GI50 (NCI-H226): > 100 µM (inactive) | GI50 (NCI-H23): > 100 µM (inactive) | GI50 (NCI-H460): > 100 µM (inactive) | GI50 (NCI-H522): > 100 µM (inactive) | GI50 (NCI/ADR-RES): > 100 µM (inactive) | GI50 (OVCAR-3): > 100 µM (inactive) | GI50 (OVCAR-4): > 100 µM (inactive) | GI50 (OVCAR-5): > 100 µM (inactive) | GI50 (OVCAR-8): > 100 µM (inactive) | GI50 (PC-3): > 100 µM (inactive) | GI50 (RPMI-8226): > 100 µM (inactive) | GI50 (RXF 393): > 100 µM (inactive) | GI50 (SF-268): > 100 µM (inactive) | GI50 (SF-295): > 100 µM (inactive) | GI50 (SF-539): 0.0904 µM (active) | GI50 (SK-MEL-28): > 100 µM (inactive) | GI50 (SK-MEL-2): > 100 µM (inactive) | GI50 (SK-MEL-5): > 100 µM (inactive) | GI50 (SK-OV-3): > 100 µM (inactive) | GI50 (SN12C): > 100 µM (inactive) | GI50 (SNB-19): > 100 µM (inactive) | GI50 (SNB-75): > 100 µM (inactive) | GI50 (SR): > 100 µM (inactive) | GI50 (SW-620): > 100 µM (inactive) | GI50 (T47D): > 100 µM (inactive) | GI50 (TK-10): > 100 µM (inactive) | GI50 (U-251): > 100 µM (inactive) | GI50 (UACC-257): > 100 µM (inactive) | GI50 (UACC-62): > 100 µM (inactive) | GI50 (UO-31): > 100 µM (inactive)

COc1ccc(-n2c3c(c4cc(O)ccc42)C(=O)c2ccccc2C3=O)cc1
GI50 (786-0): 1.72 µM (inactive) | GI50 (A498): 3.93 µM (inactive) | GI50 (A549): 11.7 µM (inactive) | GI50 (ACHN): 0.682 µM (active) | GI50 (BT-549): 11.2 µM (inactive) | GI50 (CAKI-1): 95.7 µM (inactive) | GI50 (COLO 205): 80.5 µM (inactive) | GI50 (DU-145): 19.1 µM (inactive) | GI50 (EKVX): 4.74 µM (inactive) | GI50 (HCT-116): 0.305 µM (active) | GI50 (HCT-15): > 100 µM | GI50 (HL-60): 15 µM (inactive) | GI50 (HOP-62): 2.26 µM (inactive) | GI50 (HOP-92): 16.9 µM (inactive) | GI50 (HT-29): 3.94 µM (inactive) | GI50 (Hs-578T): 7.24 µM (inactive) | GI50 (IGROV-1): 3.79 µM (inactive) | GI50 (K562): 30.7 µM (inactive) | GI50 (KM12): 2.13 µM (inactive) | GI50 (LOX IMVI): 4.71 µM (inactive) | GI50 (M14): > 100 µM (inactive) | GI50 (MCF7): 10.7 µM (inactive) | GI50 (MDA-MB-231): 2 µM (inactive) | GI50 (MDA-MB-435): 13.8 µM (inactive) | GI50 (MDA-N): > 100 µM (inactive) | GI50 (MOLT-4): 7.66 µM (inactive) | GI50 (Malme-3M): 36.2 µM (inactive) | GI50 (NCI-H23): 8.97 µM (inactive) | GI50 (NCI-H460): 3.97 µM (inactive) | GI50 (NCI-H522): 16.6 µM (inactive) | GI50 (NCI/ADR-RES): 4.61 µM (inactive) | GI50 (OVCAR-3): 8.38 µM (inactive) | GI50 (OVCAR-4): 17.4 µM (inactive) | GI50 (OVCAR-5): 6.04 µM (inactive) | GI50 (OVCAR-8): 2.52 µM (inactive) | GI50 (PC-3): 5.32 µM (inactive) | GI50 (RPMI-8226): 13.8 µM (inactive) | GI50 (RXF 393): 2.84 µM (inactive) | GI50 (SF-268): 2.14 µM (inactive) | GI50 (SF-295): 2.86 µM (inactive) | GI50 (SF-539): 1.05 µM (active) | GI50 (SK-MEL-28): 3.08 µM (inactive) | GI50 (SK-MEL-2): 5.75 µM (inactive) | GI50 (SK-MEL-5): 2.73 µM (inactive) | GI50 (SK-OV-3): 0.404 µM (active) | GI50 (SN12C): 2.3 µM (inactive) | GI50 (SNB-19): 6.65 µM (inactive) | GI50 (SR): 10.4 µM (inactive) | GI50 (SW-620): > 100 µM (inactive) | GI50 (T47D): 8.24 µM (inactive) | GI50 (TK-10): 8.55 µM (inactive) | GI50 (U-251): 0.931 µM (active) | GI50 (UACC-257): > 100 µM (inactive) | GI50 (UACC-62): 3.5 µM (inactive) | GI50 (UO-31): 14.7 µM (inactive)

Nc1nc(Cl)c(N)c(NC23CC4CC(CC(C4)C2)C3)n1
GI50 (786-0): 1.67 µM (inactive) | GI50 (A498): 2.88 µM (inactive) | GI50 (A549): 2.13 µM (inactive) | GI50 (ACHN): 1.78 µM (inactive) | GI50 (BT-549): 2.25 µM (inactive) | GI50 (CAKI-1): 1.93 µM (inactive) | GI50 (CCRF-CEM): 1.62 µM (inactive) | GI50 (COLO 205): 1.58 µM (inactive) | GI50 (DU-145): 2.22 µM (inactive) | GI50 (EKVX): 2.18 µM (inactive) | GI50 (HCC 2998): 2.25 µM (inactive) | GI50 (HCT-116): 1.58 µM (inactive) | GI50 (HCT-15): 1.73 µM | GI50 (HOP-62): 1.87 µM (inactive) | GI50 (HOP-92): 3.89 µM (inactive) | GI50 (HT-29): 1.79 µM (inactive) | GI50 (Hs-578T): 4.4 µM (inactive) | GI50 (IGROV-1): 3.85 µM (inactive) | GI50 (K562): 2.08 µM (inactive) | GI50 (KM12): 1.73 µM (inactive) | GI50 (LOX IMVI): 3.87 µM (inactive) | GI50 (M14): 1.36 µM (inactive) | GI50 (MCF7): 1.68 µM (inactive) | GI50 (MDA-MB-231): 1.79 µM (inactive) | GI50 (MDA-MB-435): 1.41 µM (inactive) | GI50 (MDA-N): 1.58 µM (inactive) | GI50 (MOLT-4): 2.39 µM (inactive) | GI50 (Malme-3M): 3.16 µM (inactive) | GI50 (NCI-H226): 1.92 µM (inactive) | GI50 (NCI-H23): 2.23 µM (inactive) | GI50 (NCI-H460): 3.07 µM (inactive) | GI50 (NCI-H522): 1.92 µM (inactive) | GI50 (NCI/ADR-RES): 2.43 µM (inactive) | GI50 (OVCAR-3): 1.64 µM (inactive) | GI50 (OVCAR-4): 1.85 µM (inactive) | GI50 (OVCAR-5): 1.4 µM (inactive) | GI50 (OVCAR-8): 2.55 µM (inactive) | GI50 (PC-3): 1.36 µM (inactive) | GI50 (RPMI-8226): 2.25 µM (inactive) | GI50 (RXF 393): 1.61 µM (inactive) | GI50 (SF-268): 2.57 µM (inactive) | GI50 (SF-295): 2.78 µM (inactive) | GI50 (SF-539): 2.16 µM (inactive) | GI50 (SK-MEL-28): 1.84 µM (inactive) | GI50 (SK-MEL-2): 0.147 µM (active) | GI50 (SK-MEL-5): 1.72 µM (inactive) | GI50 (SK-OV-3): 4.32 µM (inactive) | GI50 (SN12C): 1.82 µM (inactive) | GI50 (SNB-19): 1.63 µM (inactive) | GI50 (SNB-75): 2.1 µM (inactive) | GI50 (SR): 2.56 µM (inactive) | GI50 (SW-620): 1.51 µM (inactive) | GI50 (T47D): 1.34 µM (inactive) | GI50 (TK-10): 2.38 µM (inactive) | GI50 (U-251): 1.66 µM (inactive) | GI50 (UACC-257): 2.36 µM (inactive) | GI50 (UACC-62): 1.63 µM (inactive) | GI50 (UO-31): 1.69 µM (inactive)
